# Experimental data published in patent publication US6911454B1, “Method for potentiating primary drugs in treating multidrug resistant disease” (priority 1989, dated 2005).
# Read-outs that look alike come from different tables or passages of the source.
# Assays:
# [1] = test system: resistant (K562-R7) cancel cells; assay: doxorubicin fluorescence test by flow cytometry; type: cell-based; details: FIG. 12; doxorubicin used alone
# [2] = test system: multidrug resistant human cancer (DX20); type: in vivo, mice; details: d-tetrandrine 0.5, 1, 1.5 mg injections; doxorubicin 5.5 mg per kg; about one month
# Description: It is only important that they be administered sufficiently close together that the cancer is exposed to both simultaneously. For example, nude mice infected with a multidrug resistant human cancer were given 0.5 mg, 1 mg and 1.5 mg respectively in three separate injections, 72 hours apart.
# [3] = test system: DX20 cancer cells; assay: modified MTT assay, drug sensitivity of DX20 cells; type: cell-based, human; details: DX20 cells
# Source text: The MES-SA/DX20 cell line was established according to the development methods of Sikic et al., Resistance to Antineoplastic Drugs, Chap. 3, CRC Press, Ed. David Kessel, pp. 37-47 (1989). In vitro drug sensitivity testing consisted of two assay models, the modified MTT assay (Mossman, J. Immunolog. Methods, Vol. 65, pp. 55-63, 1983) and the colonogenic assay. In addition to this, the combinations were investigated in vivo in nude mice bearing the DX20 cell line. The MTT assay was chosen because of its practical advantages in large-scale screening. The assay involved cellular conversion of tetrazolium salt to a colored formazan serving as a measurement of cell viability.
# In a given experiment, culture media, 50 microliters, containing 8,000-25,000 cells, depending on the proliferation rate of the cell line, was pipetted into each well of several 96-well microtiter plates. The cells were allowed to attach overnight. […] The cytotoxic drug, also at a concentration below that previously established as an IC50, was then added at decreasing concentrations by 25% to several half plate sections. The cells were allowed to grown for 72 hours. 100 microliters of media was then removed and 25 microliters of 5 mg/ml MTT (Sigma, St. Louis, Mo.) in phosphate buffered saline was added to each well. The plates were kept in an incubator at 37° C. and 5% CO2. After 2-3 hours of incubation, the extraction buffer containing 20% w/v SDS and 50% DMF was added and the plates again incubated overnight. The plates were read at a test wavelength of 570 nm on a multiwell spectrophotometer (Model MR 700, Dynatech Laboratories, Alexandria, Va.). Each drug combination was tested in triplicate. Percent survival was defined as percent of optical density (OD) of the drug-treated wells to that of the control detected by the spectrophotometer.
# The in vitro drug sensitivity testing of ethyl fangchinoline consisted of two assay models, the modified MTT (Mossman 1983) and a colony formation assay in which a direct measure was taken by quantitation of colony formation. The MTT assay was chosen because of its practical advantages in large scale screening. The assay involves cellular conversion of tetrozolium salt to a colored formazan serving as a measurement of cell viability.
# Two human cell lines were chosen as the primary targets of study in reversing multiple-drug resistance. The MES-SA, a sarcoma, and its resistant subline, DX-20, were kindly donated by Dr. B. Sikic (U of Stanford, Stanford, Calif.). The A2780, an ovarian cancer, and its resistant subline, A2780-ad10, were provided by Roswell Park Memorial Inst. (Buffalo, N.Y.).
# Culture media, 50 ul containing 8,000 to 25,000 cells depending on the proliferation rate of the line, was pipetted into each of 96 wells in a flat bottom tissue plate. The cells were incubated overnight to allow adherence. One hundred ul of ethyl fangchinoline, at a concentration below that previously established as an independent IC50, was added to each experimental well. […] The plates were then incubated for 72 hours before MTT was added and the analysis of O.D. values interpreted by a multi-plate scanner (MR700, Dynatech).
# [4] = test system: DX20 tumor; assay: tumor measurements in nude mice bearing the DX20 tumor; type: in vivo; parameters: unit not given here
# Description: (See FIG. 6). Tumor size was calculated using the formula (4 Pi/3) X*Y*2Z.
# The study was done with 3-4 week old male balb-C nude mice. The animals were injected with DX20 1×10^7 cells.
# [5] = test system: CQ-sensitive (FCMSU1/Sudan) strain of P. falciparum; assay: 3H-adenosine incorporation, chloroquine-sensitive P. falciparum; type: cell-based
# Description: (§1) Chloroquine and qinghaosu are commonly used antimalarial drugs.
# (§2) The dose (IC50) of each drug or each drug combination required to effect a 50% inhibition in the malarial activity of each strain was determined by establishing a dose response curve for each.
# (§3) FCMSU1/Sudan strain and cloned Indochina (W-2) strain of P. falciparum were used. […] The two strains of the parasite were cultured according to the candle jar method of Trager and Jensen, Science, Vol. 193, pages 673-675 (1976). In a given experiment, four-day-old Petri dish cultures (approximately 10% parasitemia) were diluted with medium containing an amount of noninfected type A human erythrocytes to obtain a culture with a final hematocrit of 1.5% and parasitemia of 0.5-1.0%. The resulting culture was ready for addition to microtitration plates with ninety-six flat-bottom wells.
# (§4) The testing procedure used was similar to that described by Desjardins et al. in “Antimicrobial Agents and Chemotherapy,” Vol. 16, pages 710-718 (1979). […] 25 microliters radioactive (0.5 microCi) [2,8-^3H] adenosine. The microtitration plates were incubated in a candle jar for an additional 18 hours, at 37° C.
# (§5) As the malaria parasite grows ^3H-adenosine is metabolized and incorporates into polymeric RNA and DNA. The labeled polymers are trapped on glass fiber filters and unincorporated material is washed away. In the absence of drug there is 100% incorporation of the labeled material. When drugs interfere (directly or indirectly), an inhibitory dose of 50% (IC50) can be calculated. The experiments were repeated three times except where noted. Statistical analysis was done using Student's T-test for significance. Van Kyke et al. “Exp. Parasitol,” Vol. 64, pages 418-423 (1987).
# (§6) The test procedure was basically the same as outlined above.
# [6] = test system: CQ-resistant (W-2) strain of P. falciparum; assay: 3H-adenosine incorporation, chloroquine-resistant P. falciparum; type: cell-based; details: for Ratio (S/R): IC50 against sensitive strain divided by IC50 for resistant strain
# Description: as §1, §2, §3, §4, §5, §6
# [7] = Day 7 Prior to Treatment (baseline)
# [8] = Day 24 After Treatment, d-tetrandrine days 6, 8, 10, doxorubicin 5.5 mg/kg day 12
# [9] = Table VII, chloroquine-sensitive strain, drug alone, read-out: IC50 S
# [10] = Table VII, chloroquine-resistant strain, drug alone, read-out: IC50 R
# [11] = Plasmodium falciparum, read-out: IC50 DRUG COMBINATION TT(1.0 uM) CQ(0.3 uM)
# [12] = Plasmodium falciparum, read-out: IC50 DRUG COMBINATION TT(2.0 uM) CQ(0.2 uM)
# [13] = Plasmodium falciparum, read-out: IC50 DRUG COMBINATION TT(3.0 uM) CQ(0.1 uM)
# [14] = Plasmodium falciparum, read-out: IC50 SINGLE DRUG
# [15] = Plasmodium falciparum, read-out: IC50 S
# [16] = Plasmodium falciparum, read-out: IC50 R
compound,measurement,setting,value
COc1cccc2c1C(=O)c1c(O)c3c(c(O)c1C2=O)C[C@@](O)(C(=O)CO)C[C@@H]3O[C@H]1C[C@H](N)[C@H](O)[C@H](C)O1 [doxorubicin],doxorubicin concentration (fluorescence) in resistant versus sensitive cells,[1],lower concentration of doxorubicin than does a sensitive cancer
same,tumor outcome,[2],very large tumors which were unabated
same,IC50,"[3]; Homo sapiens, d-tetrandrine 2 × 10^−7 molar, read-out: IC50 doxorubicin in d-tetrandrine",660 nM
same,IC50,"[3]; Homo sapiens, d-tetrandrine 4 × 10^−7 molar, read-out: IC50 doxorubicin in d-tetrandrine",360 nM
same,IC50,"[3]; Homo sapiens, ethyl fangchinoline 1 × 10^−6 molar, read-out: IC50 doxorubicin in ethyl fangchinoline",480 nM
same,IC50,"[3]; Homo sapiens, ethyl fangchinoline 2 × 10^−7 molar, read-out: IC50 doxorubicin in ethyl fangchinoline",470 nM
same,IC50,"[3]; Homo sapiens, ethyl fangchinoline 4 × 10^−7 molar, read-out: IC50 doxorubicin in ethyl fangchinoline",160 nM
same,IC50,"[3]; Homo sapiens, single agent, read-out: IC50 alone",5400 nM
same,Tumor Measurements Depth,[4]; [7],1.25
same,Tumor Measurements Length,[4]; [7],3.50
same,Tumor Measurements Width,[4]; [7],3.87
same,Tumor Measurements Depth,[4]; [8],21.50
same,Tumor Measurements Length,[4]; [8],24.50
same,Tumor Measurements Width,[4]; [8],19.10
"COc1ccc2cc1Oc1ccc(cc1)C[C@H]1c3cc(c(OC)cc3CCN1C)Oc1c(OC)c(OC)c(OC)c3c1[C@H](C2)N(C)CC3 [HE, hernandezine]",IC50,[5]; [9],370 nM
same,Ratio (S/R),[6],2.8
same,IC50,[6]; [10],130 nM
"COc1cc(C[C@H]2c3cc(OC)c(OC)cc3CCN2C)c(Oc2cc3c(cc2OC)-c2c(OC)c(OC)cc4c2[C@H](C3)N(C)CC4)cc1OC [TH, thalicarpine]",IC50,"[5]; Plasmodium falciparum, Table VII, chloroquine-sensitive strain, drug alone, read-out: IC50 S",1700 nM
same,Ratio (S/R),[6],1.3
same,IC50,"[6]; Plasmodium falciparum, Table VII, chloroquine-resistant strain, drug alone, read-out: IC50 R",1300 nM
"COc1cc2c3cc1Oc1c(O)c(OC)cc4c1[C@@H](Cc1ccc(O)c(c1)Oc1ccc(cc1)C[C@@H]3N(C)CC2)N(C)CC4 [OB, obamegine]",IC50,[5]; [9],660 nM
same,Ratio (S/R),[6],1.5
same,IC50,[6]; [10],480 nM
cycleanine,IC50,[5]; [9],3200 nM
same,Ratio (S/R),[6],0.8
same,IC50,[6]; [10],4200 nM
"COc1ccc2cc1Oc1ccc(cc1)C[C@H]1c3cc(c(OC)cc3CCN1C)Oc1c(O)c(OC)cc3c1[C@H](C2)N(C)CC3 [TA, fangchinoline]",IC50,[5]; [9],260 nM
same,Ratio (S/R),[6],1.2
same,IC50,[6]; [10],220 nM
"CCN(CC)CCCC(C)Nc1ccnc2cc(Cl)ccc12 (stereo not shown) [CQ, chloroquine]",IC50,[5]; [11],16.5 ± 2.1 nM
same,IC50,[5]; [12],11.4 ± 2.3 nM
same,IC50,[5]; [13],7.4 ± 1.3 nM
same,IC50,[5]; [14],26.7 ± 3.8 nM
same,lowering of the IC50 of chloroquine,[6]; 3.0 micromolar d-tetrandrine added to 0.1 micromolar chloroquine,43 Fold
same,IC50,[6]; [11],23.8 ± 4.1 nM
same,IC50,[6]; [12],8 ± 1.6 nM
same,IC50,[6]; [13],4.2 ± 0.3 nM
same,IC50,[6]; [14],186 ± 4.9 nM
"C[C@@H]1CC[C@H]2[C@@H](C)C(=O)O[C@@H]3O[C@@]4(C)CC[C@@H]1[C@]32OO4 [QHS, qinghaosu]",IC50,"[5]; S STRAIN, TT/QHS 10:1, mean ± S.D, read-out: IC50 DRUG COMBINATION TT(2.0 uM) QHS(0.2 uM)",11.4 ± 0.6 nM
same,IC50,"[5]; Table IV, S STRAIN, mean ± S.D, read-out: IC50 SINGLE DRUG",36.7 ± 4.7 nM
same,IC50,"[5]; read-out: IC50 DRUG COMBINATION TT(1.0 uM) QHS(0.3 uM), S STRAIN, TT/QHS 10:3, mean ± S.D",21.6 ± 2.7 nM
same,IC50,"[5]; read-out: IC50 DRUG COMBINATION TT(3.0 uM) QHS(0.1 uM), S STRAIN, TT/QHS 30:1, mean ± S.D",7.3 ± 1.2 nM
same,IC50,"[6]; R STRAIN, TT/QHS 10:1, mean ± S.D, read-out: IC50 DRUG COMBINATION TT(2.0 uM) QHS(0.2 uM)",7.2 ± 1.4 nM
same,IC50,"[6]; Table IV, R STRAIN, mean ± S.D, read-out: IC50 SINGLE DRUG",47.8 ± 14.5 nM
same,IC50,"[6]; read-out: IC50 DRUG COMBINATION TT(1.0 uM) QHS(0.3 uM), R STRAIN, TT/QHS 10:3, mean ± S.D",17.9 ± 4.1 nM
same,IC50,"[6]; read-out: IC50 DRUG COMBINATION TT(3.0 uM) QHS(0.1 uM), R STRAIN, TT/QHS 30:1, mean ± S.D",4.6 ± 1.4 nM
"COc1ccc2cc1Oc1ccc(cc1)C[C@@H]1c3cc(c(OC)cc3CCN1C)Oc1c(OC)c(OC)cc3c1[C@H](C2)N(C)CC3 [IT, isotetrandrine]",IC50,[5]; [9],480 nM
same,IC50,[6]; [10],140 nM
"COc1ccc2cc1Oc1ccc(cc1)C[C@@H]1c3cc(c(OC)cc3CCN1C)Oc1c(OC)c(OC)cc3c1[C@@H](C2)N(C)CC3 [PH, phacanthine]",IC50,[5]; [9],600 nM
same,IC50,[6]; [10],500 nM
"COc1ccc2cc1Oc1ccc(cc1)C[C@H]1c3c(cc4c(c3Oc3cc5c(cc3OC)CCN(C)[C@@H]5C2)OCO4)CCN1C [CE, cepharanthine]",IC50,[5]; [15],1000 nM
same,Ratio (S/R),[6],1.1
same,IC50,[6]; [16],940 nM
"COc1cc2c3cc1Oc1c(OC)c(OC)cc4c1[C@@H](Cc1ccc(O)c(c1)Oc1ccc(cc1)C[C@H]3N(C)CC2)N(C)CC4 [PY, pycnamine]",IC50,[5]; [9],380 nM
same,Ratio (S/R),[6],0.9
same,IC50,[6]; [10],420 nM
"COc1cc2c3cc1Oc1c(OC)c(OC)cc4c1[C@@H](Cc1ccc(O)c(c1)Oc1ccc(cc1)C[C@@H]3N(C)CC2)N(C)CC4 [BB, berbamine]",IC50,[5]; [9],460 nM
same,Ratio (S/R),[6],2.7
same,IC50,[6]; [10],190 nM
"COc1cc(C[C@H]2c3cc(OC)c(OC)c(OC)c3CCN2C)c(Oc2cc3c(cc2OC)-c2c(OC)c(OC)c(OC)c4c2[C@H](C3)N(C)CC4)cc1OC [ME, methoxadiantifoline]",IC50,[5]; [15],5300 nM
same,Ratio (S/R),[6],5.5
same,IC50,[6]; [16],970 nM
same,effectiveness against resistant versus sensitive malarial strain,[6]; conclusion from Table VII,substantially more effective against the chloroquine resistant malarial strain than against the chloroquine sensitive malarial strain
ethyl fangchinoline,IC50,"[3]; single agent, read-out: IC50 alone",6500 nM
